# Laboratory results: paper PMC4229385 (Circulation, 2014)
# Molecular target: V1AR (AVP type 1A receptor) (Homo sapiens, UniProt P37288)
# Test: DAGR FRET assay, block of AVP-induced DAG generation at […]
# Format: cell-based
# V1AR (AVP type 1A receptor), sequence (P37288 whole entry): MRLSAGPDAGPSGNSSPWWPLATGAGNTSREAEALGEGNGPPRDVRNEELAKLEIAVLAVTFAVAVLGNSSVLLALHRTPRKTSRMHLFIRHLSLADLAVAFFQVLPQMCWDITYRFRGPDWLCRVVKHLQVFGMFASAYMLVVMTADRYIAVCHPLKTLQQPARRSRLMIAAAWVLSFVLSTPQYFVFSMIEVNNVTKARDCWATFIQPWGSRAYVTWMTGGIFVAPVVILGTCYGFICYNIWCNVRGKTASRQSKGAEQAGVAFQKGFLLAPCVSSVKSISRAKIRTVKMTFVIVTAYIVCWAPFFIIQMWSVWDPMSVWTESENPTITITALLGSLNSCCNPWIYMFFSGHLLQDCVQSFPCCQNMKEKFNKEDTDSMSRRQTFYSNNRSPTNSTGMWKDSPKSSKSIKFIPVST
smiles,measurement,value
COc1ccc(S(=O)(=O)N2c3ccc(Cl)cc3[C@](O)(c3ccccc3Cl)[C@@H]2C(=O)N2CCC[C@H]2C(N)=O)cc1OC [SR 49059],"DAGR FRET assay, block of AVP-induced DAG generation at 10 μM",it completely blocked AVP-dependent DAG production (Fig. 4E)
